According to paper PMC8043124 (ACS Infectious Diseases, 2021):

What was measured:
[1] = test system: P. aeruginosa clinical isolates (BWH006, BWH012, BWH013, BWH021, BWH027); experiment: Checkerboard assay of potentiator-antibiotic pairs in clinical isolates; assay type: cell-based, Pseudomonas aeruginosa; details: for Antibiotic MIC with WD40 relative to clinical breakpoint: 10 μM WD40, MIC95, breakpoints for Gram-positive species (EUCAST); for MIC of antibiotic alone: range over isolates, Figure 6 names MIC95
[2] = test system: P. aeruginosa (strain PA14); experiment: Checkerboard assay of potentiator-antibiotic pairs; assay type: cell-based, Pseudomonas aeruginosa; details: for Antibiotic MIC with WD40 relative to clinical breakpoint: PA14, with WD40, breakpoints for Gram-positive species (EUCAST)

SMILES | Antibiotic MIC with WD40 relative to clinical breakpoint [1] | MIC of antibiotic alone [1] [µg/mL] | Antibiotic MIC with WD40 relative to clinical breakpoint [2] | MIC of antibiotic alone ([2]; PA14) [µg/mL]
CC(=O)O[C@H]1C[C@@]2(C)[C@@H](C[C@@H](O)[C@H]3[C@@]4(C)CC[C@@H](O)[C@@H](C)[C@@H]4CC[C@@]32C)/C1=C(\CCC=C(C)C)C(=O)O [fusidic acid] | did not meet their clinical breakpoints | 512 to 1024 | clinical breakpoints were met | 
CO[C@H]1/C=C/O[C@@]2(C)Oc3c(C)c(O)c4c(O)c(c(/C=N/N5CCN(C)CC5)c(O)c4c3C2=O)NC(=O)/C(C)=C\C=C\[C@H](C)[C@H](O)[C@@H](C)[C@@H](O)[C@@H](C)[C@H](OC(C)=O)[C@@H]1C [rifampin] | below its clinical breakpoint | 8 to 16 | to the clinical breakpoint | 512
